This note sets out measurements from patent US20070054916A1, “Aryl nitrogen-containing bicyclic compounds and methods of use” (Amgen Inc., priority 2004, published 2007).

For assay [1], the system named is production of TNF by monocytes activated with bacterial lipopolysaccharide (LPS). As to the kind of experiment: Lipopolysaccharide-activated monocyte TNF production assay. The class given is cell-based. The following applies: Homo sapiens, read-out: IC50 values in the monocyte assay (LPS induced TNF release). In outline:
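Adherent human PBMC-derived monocytes (~70%) in DMEM/2% FCS were pre-incubated 60 min with nine two-fold compound dilutions, then stimulated with E. coli K532 LPS (added as 30 ng/ml solution) for 4 h at 37 °C. Supernatant TNF-α was measured by sandwich ELISA. IC50 was taken from a polynomial fit of TNF versus compound concentration.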

For assay [2], the target named is LCK KD GST (225-509) (Homo sapiens, UniProt P06239). Description: LCK Homogenous Time Resolved Flourescent (HTRF) kinase assay. The conditions noted are these: average IC50 value in the human HTRF assay for the inhibition of the Lck kinase enzyme. (In general: TR-FRET usually uses a lanthanide donor and a delayed reading to cut background.)
Chain of LCK KD GST (225-509) (P06239 225-509): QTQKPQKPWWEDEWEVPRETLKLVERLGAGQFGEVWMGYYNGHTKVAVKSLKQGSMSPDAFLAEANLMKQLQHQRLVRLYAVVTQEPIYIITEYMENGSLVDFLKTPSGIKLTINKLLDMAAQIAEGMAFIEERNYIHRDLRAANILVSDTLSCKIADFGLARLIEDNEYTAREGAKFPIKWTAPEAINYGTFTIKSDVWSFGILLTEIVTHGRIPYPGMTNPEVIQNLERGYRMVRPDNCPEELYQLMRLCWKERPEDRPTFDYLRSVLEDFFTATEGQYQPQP

What is called IC50 is the concentration needed to halve the response being measured. For `CNc1ncc2cc(-c3cccc(C(=O)Nc4cccc(OC(F)(F)F)c4)c3C)cnc2n1` [Example 183, 2-methyl-3-(2-(methylamino)pyrido [2,3-d]pyrimidin-6-yl)-N-(3-((trifluoromethyl)oxy)phenyl)benzamide], the IC50 in assay [1] is not above 25 µM; in assay [2], not above 1 µM.

Consider `COc1c(C(=O)Nc2cccc(C(F)(F)F)c2)cc(-c2ccc3nc(N)ncc3c2)c(OC)c1OC` [Example 109, 5-(2-amino-6-quinazolinyl)-2,3,4-tris(methyloxy)-(trifluoromethyl)-N-(3-phenyl)benzamide], for which the IC50 in assay [1] was not above 25 µM; in assay [2], not above 1 µM.

In the case of `CN(C)c1cccc2c(S(=O)(=O)Nc3cccc(-c4ccc5nc(N)ncc5c4)c3)cccc12` [Example 55, N-(3-(2-amino-6-quinazolinyl)phenyl)-5-(dimethylamino)-1-naphthalenesulfonamide], the IC50 is not above 25 µM in assay [1] and not above 1 µM in assay [2].

For `CNc1ncc2cc(-c3cc(C(=O)Nc4ccc(OC)c(C(F)(F)F)c4)ccc3C)cnc2n1` [Example 184, 4-methyl-3-(2-(methylamino)pyrido [2,3-d]pyrimidin-6-yl)-N-(4-(methyloxy)-3-(trifluoromethyl)phenyl)benzamide], the IC50 in assay [1] is not above 25 µM; in assay [2] it was not above 1 µM.

For the molecule `Cc1ccc(C(=O)NC2CC2)cc1-c1ccc2nc(NC3CCN(C)CC3)ncc2c1` [Example 45, N-cyclopropyl-4-methyl-3-(2-((1-methyl-4-piperidinyl)amino)-6-quinazolinyl) benzamide], the half-inhibitory concentration (IC50) in assay [2] is not above 25 µM.

Regarding `CNc1ncc2cc(-c3cc(C(=O)Nc4ccc(F)c(C(F)(F)F)c4)ccc3C)ccc2n1` [Example 16, N-(4-fluoro-3-(trifluoromethyl)phenyl)-4-methyl-3-(2-(methylamino)-6-quinazolinyl)benzamide], the half-maximal inhibitory concentration (IC50) in assay [1] is not above 25 µM; in assay [2], not above 1 µM.

For the molecule `COc1c(C(=O)Nc2cc(C(F)(F)F)ccc2N(C)CCCN(C)C)cc(-c2ccc3nc(N)ncc3c2)c(OC)c1OC` [Example 110, 5-(2-amino-6-quinazolinyl)-N-(2-((3-(dimethylamino)propyl)methyl)amino-5-(trifluoromethyl)phenyl)-2,3,4-tris(methyloxy)benzamide], the IC50 in assay [1] is not above 25 µM; in assay [2], not above 1 µM.

Molecule `Nc1ncc2cc(-c3cccc(C(=O)Nc4cccc(OC(F)(F)F)c4)c3)ccc2n1` [Example 98, 3-(2-amino-6-quinazolinyl)-N-(3-((trifluoromethyl)oxy)phenyl)benzamide] returned an IC50 in assay [2] not above 1 µM.

Take `Cc1ccc(C(=O)Nc2cccc(NC(=O)CN3CCOCC3)c2C)cc1-c1ccc2nc(N)ncc2c1` [Example 56, 3-(2-Amino-6-quinazolinyl)-4-methyl-N-(2-methyl-3-((4-morpholinylacetyl)amino)phenyl)benzamide]: the half-inhibitory concentration (IC50) in assay [1] is not above 25 µM; in assay [2], not above 1 µM.
